# Experimental data published in patent US11596639B2, “Substituted indole Mcl-1 inhibitors” (Vanderbilt University, priority 2016, dated 2023).
# pKi: −log10 of the molar value. Where two headings read alike, the source gives them in different places.
# How the values were obtained:
# [1] = test system: H929 human cancer cell lines; experiment: Cellular viability / proliferation (Cell TiterGlo, 72 h); assay type: cell-based
# Method in brief: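 Top dose 50 μM, serially diluted 2-fold, applied one day after seeding (1,000 cells/well, 10% FBS), DMSO below 1%.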
# Mcl-1 = Mcl-1 (Homo sapiens (Human), UniProt Q07820); experiment: Fluorescence polarization anisotropy (FPA) competition assay, FITC-Bak or FITC-Bim BH3 peptide; assay type: binding; conditions: read-out: Ki for Inhibition of Mcl-1 by FPA assay
# Sequence of Mcl-1 (Q07820 172-327): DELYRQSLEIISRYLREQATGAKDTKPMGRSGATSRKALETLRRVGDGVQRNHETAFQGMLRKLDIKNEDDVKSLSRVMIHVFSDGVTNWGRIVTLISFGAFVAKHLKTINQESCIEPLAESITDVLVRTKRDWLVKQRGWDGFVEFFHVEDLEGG
# [2] = Homo sapiens, NCI-H929, 72 h, read-out: GI50 on cellular proliferation of H929 human cancer cell lines, H929 cells, 72 h, Cell TiterGlo, 10% FBS
# [3] = read-out: GI50 on cellular proliferation of H929 human cancer cell lines, H929 cells, 72 h, Cell TiterGlo, 10% FBS
Compound,"GI50 [1, 2] [nM]",pKi (Mcl-1),"GI50 [1, 3] [nM]","GI50 ([1]; H929 cells, 72 h, Cell TiterGlo, 10% FBS, read-out: GI50 on cellular proliferation of H929 human cancer cell lines) [nM]"
"Cc1ccnc(-c2ccc3c(c2)c(N2C[C@@H](C)n4c(c(CCCOc5cc(C)c(Cl)c(C)c5)c5ccc(Cl)c(-c6c(C)nn(C)c6C)c54)C2=O)cn3C)n1 [Example 418, (R)-7-Chloro-10-(3-(4-chloro-3,5-dimethylphenoxy)propyl)-4-methyl-2-(1-methyl-5-(4-methylpyrimidin-2-yl)-1H-indol-3-yl)-6-(1,3,5-trimethyl-1H-pyrazol-4-yl)-3,4-dihydropyrazino[1,2-a]indol-1(2H)-one]",900,8.85,,
"Cc1cc(OCCCc2c3n(c4c(-c5c(C)nn(C)c5C)c(Cl)ccc24)[C@H](C)CN(c2cccc4cc(C(=O)O)[nH]c24)C3=O)cc(C)c1Cl [Example 242, 7-[(4R)-7-chloro-10-[3-(4-chloro-3,5-dimethyl-phenoxy)propyl]-4-methyl-1-oxo-6-(1,3,5-trimethylpyrazol-4-yl)-3,4-dihydropyrazino[1,2-a]indol-2-yl]-1H-indole-2-carboxylic acid]",,> 9.00,1300,
"Cc1cc(OCCCc2c3n(c4c(-c5c(C)ncnc5C)c(Cl)ccc24)[C@H](C)CN(c2cn(C)c4ccc(C(=O)O)cc24)C3=O)cc(C)c1Cl [Example 177, 3-[(4R)-7-chloro-10-[3-(4-chloro-3,5-dimethyl-phenoxy)propyl]-6-(4,6-dimethylpyrimidin-5-yl)-4-methyl-1-oxo-3,4-dihydropyrazino[1,2-a]indol-2-yl]-1-methyl-indole-5-carboxylic acid]",270,> 9.00,,
"Cc1cc(OCCCc2c3n(c4c(-c5c(C)nn(C)c5C)c(Cl)ccc24)[C@H](C)CN(c2nn(C)c4c(C(=O)O)cccc24)C3=O)cc(C)c1Cl [Example 165, (R)-3-(7-Chloro-10-(3-(4-chloro-3,5-dimethylphenoxy)propyl)-4-methyl-1-oxo-6-(1,3,5-trimethyl-1H-pyrazol-4-yl)-3,4-dihydropyrazino[1,2-a]indol-2(1H)-yl)-1-methyl-1H-indazole-7-carboxylic acid]",1200,9.00,,
"Cc1cc(OCCCc2c3n(c4c(-c5c(C)nn(C)c5C)c(Cl)ccc24)[C@H](C)CN(c2cccc4c(Cl)cc(C(=O)O)nc24)C3=O)cc(C)c1Cl [Example 230, (R)-4-Chloro-8-(7-chloro-10-(3-(4-chloro-3,5-dimethylphenoxy)propyl)-4-methyl-1-oxo-6-(1,3,5-trimethyl-1H-pyrazol-4-yl)-3,4-dihydropyrazino[1,2-a]indol-2(1H)-yl)quinoline-2-carboxylic acid]",890,> 9.00,,
"Cc1cc(OCCCc2c3n(c4c(-c5c(C)nn(C)c5C)c(Cl)ccc24)[C@H](C)CN(c2cn(C)c4ccc(C(=O)NCc5ccncc5)cc24)C3=O)cc(C)c1Cl [Example 284, 3-[(4R)-7-chloro-10-[3-(4-chloro-3,5-dimethyl-phenoxy)propyl]-4-methyl-1-oxo-6-(1,3,5-trimethylpyrazol-4-yl)-3,4-dihydropyrazino[1,2-a]indol-2-yl]-1-methyl-N-(4-pyridylmethyl)indole-5-carboxamide]",1500,8.44,,
"Cc1cc(OCCCc2c3n(c4c(-c5c(C)nn(C)c5C)c(Cl)ccc24)[C@H](C)CN(c2cc(OCC4COC4)cc4cc(C(=O)O)n(C)c24)C3=O)cc(C)c1Cl [Example 459, (R)-7-(7-Chloro-10-(3-(4-chloro-3,5-dimethylphenoxy)propyl)-4-methyl-1-oxo-6-(1,3,5-trimethyl-1H-pyrazol-4-yl)-3,4-dihydropyrazino[1,2-a]indol-2(1H)-yl)-1-methyl-5-(oxetan-3-ylmethoxy)-1H-indole-2-carboxylic acid]",510,9.00,,
"COc1cc(C(=O)O)nc2c(N3C[C@@H](C)n4c(c(CCCOc5cc(C)c(Cl)c(C)c5)c5ccc(Cl)c(-c6c(C)nn(C)c6C)c54)C3=O)cccc12 [Example 239, (R)-8-(7-Chloro-10-(3-(4-chloro-3,5-dimethylphenoxy)propyl)-4-methyl-1-oxo-6-(1,3,5-trimethyl-1H-pyrazol-4-yl)-3,4-dihydropyrazino[1,2-a]indol-2(1H)-yl)-4-methoxyquinoline-2-carboxylic acid]",1800,> 9.00,,
"Cc1cc(OCCCc2c3n(c4c(-c5c(C)nn(C)c5C)c(Cl)ccc24)[C@H](C)CN(c2cn(C)c4ccc(-c5cn6c(n5)CCC6)cc24)C3=O)cc(C)c1Cl [Example 419, (R)-7-Chloro-10-(3-(4-chloro-3,5-dimethylphenoxy)propyl)-2-(5-(6,7-dihydro-5H-pyrrolo[1,2-a]imidazol-2-yl)-1-methyl-1H-indol-3-yl)-4-methyl-6-(1,3,5-trimethyl-1H-pyrazol-4-yl)-3,4-dihydropyrazino[1,2-a]indol-1(2H)-one]",,8.64,,1100
"Cc1cc(OCCCc2c3n(c4c(-c5c(C)nn(C)c5C)c(Cl)ccc24)[C@H](C)CN(c2nccc4cc(C(=O)O)ccc24)C3=O)cc(C)c1Cl [Example 264, 1-[(4R)-7-chloro-10-[3-(4-chloro-3,5-dimethyl-phenoxy)propyl]-4-methyl-1-oxo-6-(1,3,5-trimethylpyrazol-4-yl)-3,4-dihydropyrazino[1,2-a]indol-2-yl]isoquinoline-6-carboxylic acid]",560,> 9.00,,
"Cc1cc(OCCCc2c3n(c4c(-c5c(C)nn(C)c5C)c(Cl)ccc24)[C@H](C)CN(c2cccc4c(C(=O)O)cn(C)c24)C3=O)cc(C)c1Cl [Example 215, (R)-7-(7-chloro-10-(3-(4-chloro-3,5-dimethylphenoxy)propyl)-4-methyl-1-oxo-6-(1,3,5-trimethyl-1H-pyrazol-4-yl)-3,4-dihydropyrazino[1,2-a]indol-2(1H)-yl)-1-methyl-1H-indole-3-carboxylic acid]",,> 9.00,430,
"Cc1cc(OCCCc2c3n(c4c(-c5c(C)nn(C)c5C)c(Cl)ccc24)[C@H](C)CN(c2cccc4cc(C(=O)O)n(Cc5ccccn5)c24)C3=O)cc(C)c1Cl [Example 249, 7-[(4R)-7-chloro-10-[3-(4-chloro-3,5-dimethyl-phenoxy)propyl]-4-methyl-1-oxo-6-(1,3,5-trimethylpyrazol-4-yl)-3,4-dihydropyrazino[1,2-a]indol-2-yl]-1-(2-pyridylmethyl)indole-2-carboxylic acid]",,> 9.00,490,
"Cc1cc(OCCCc2c3n(c4c(-c5c(C)nn(C)c5C)c(Cl)ccc24)[C@H](C)CN(c2cn(C)c4ccccc24)C3=O)cc(C)c1Cl [Example 288, (R)-7-chloro-10-(3-(4-chloro-3,5-dimethylphenoxy)propyl)-4-methyl-2-(1-methyl-1H-indol-3-yl)-6-(1,3,5-trimethyl-1H-pyrazol-4-yl)-3,4-dihydropyrazino[1,2-a]indol-1(2H)-one]",8400,8.52,,
"Cc1cc(OCCCc2c3n(c4c(-c5c(C)nn(C)c5C)c(Cl)ccc24)[C@H](C)CN(c2cn(C)c4ccc(C(=O)NNc5ccccc5)cc24)C3=O)cc(C)c1Cl [Example 427, (R)-3-(7-Chloro-10-(3-(4-chloro-3,5-dimethylphenoxy)propyl)-4-methyl-1-oxo-6-(1,3,5-trimethyl-1H-pyrazol-4-yl)-3,4-dihydropyrazino[1,2-a]indol-2(1H)-yl)-1-methyl-N′-phenyl-1H-indole-5-carbohydrazide]",490,8.92,,
"Cc1cc(OCCCc2c3n(c4c(-c5c(C)nn(C)c5C)c(Cl)ccc24)CCCN(c2cc(C(=O)O)cc4c2ccn4S(C)(=O)=O)C3=O)cc(C)c1Cl [Example 32, 4-(8-Chloro-11-(3-(4-chloro-3,5-dimethylphenoxy)propyl)-1-oxo-7-(1,3,5-trimethyl-1H-pyrazol-4-yl)-4,5-dihydro-1H-[1,4]diazepino[1,2-a]indol-2(3H)-yl)-1-(methylsulfonyl)-1H-indole-6-carboxylic acid]",7600,> 9.00,,
"Cc1cc(OCCCc2c3n(c4c(-c5c(C)nn(C)c5C)c(Cl)ccc24)[C@H](C)CN(c2cc(Cl)cc4c(C(=O)O)cn(C)c24)C3=O)cc(C)c1Cl [Example 449, (R)-5Chloro-7-(7-chloro-10-(3-(4-chloro-3,5-dimethylphenoxy)propyl)-4-methyl-1-oxo-6-(1,3,5-trimethyl-1H-pyrazol-4-yl)-3,4-dihydropyrazino[1,2-a]indol-2(1H)-yl)-1-methyl-1H-indole-3-carboxylic acid]",1200,8.59,,
"COc1cc(C(=O)O)cc(N2CCCn3c(c(CCCOc4cc(C)c(Cl)c(C)c4)c4ccc(Cl)c(-c5c(C)nn(C)c5C)c43)C2=O)c1OCCc1ccccc1 [Example 66, 3-[8-Chloro-11-[3-(4-chloro-3,5-dimethyl-phenoxy)propyl]-1-oxo-7-(1,3,5-trimethylpyrazol-4-yl)-4,5-dihydro-3H-[1,4]diazepino[1,2-a]indol-2-yl]-5-methoxy-4-(2-phenylethoxy)benzoic acid]",6400,8.37,,
"Cc1cc(OCCCc2c3n(c4c(-c5c(C)nn(C)c5C)c(Cl)ccc24)[C@H](C)CN(c2cccc4c2cc(C(=O)O)n4CC2CCOCC2)C3=O)cc(C)c1Cl [Example 198, (R)-4-(7-Chloro-10-(3-(4-chloro-3,5-dimethylphenoxy)propyl)-4-methyl-1-oxo-6-(1,3,5-trimethyl-1H-pyrazol-4-yl)-3,4-dihydropyrazino[1,2-a]indol-2(1H)-yl)-1-((tetrahydro-2H-pyran-4-yl)methyl)-1H-indole-2-carboxylic acid]",610,> 9.00,,
"Cc1cc(OCCCc2c3n(c4c(-c5c(C)nn(C)c5C)c(Cl)ccc24)CCCN(c2cc(C(=O)O)c4cnn(C(C)C)c4c2)C3=O)cc(C)c1Cl [Example 92, 6-[8-Chloro-11-[3-(4-chloro-3,5-dimethyl-phenoxy)propyl]-1-oxo-7-(1,3,5-trimethylpyrazol-4-yl)-4,5-dihydro-3H-[1,4]diazepino[1,2-a]indol-2-yl]-1-isopropyl-indazole-4-carboxylic acid]",900,> 9.00,,
